“Also recorded” adds a separate entry of the source.
Assays:
[1] = system: U87MG cells; assay: Hippocampal U87MG GBM xenograft, tumor growth by in vivo bioluminescent imaging; design: species or system BALB/c (nu/nu) mice
Procedure: FIGS. 3A-3C illustrate that a PAF-r antagonist reduces GBM tumor size. U87MG cells were implanted in the right dorsal CA3 hippocampal region of BALB/c (nu/nu) mice. Intracranial tumor growth was quantified using Jo vivo bioluminescent imaging on days 10 and 25. Saline (vehicle) or LAU-0901 (60 mg/kg/day; i.p., n=6 in each group) was administered daily from day 10, during 5 days.
Experimental Design and Methods: PAF-r deficient and wild type mice and athymic nude mice, 6 to 8 weeks of age (Harlan Laboratories) mice were used. The xerograph GBM mouse model is representative of this tumor, which has a narrow survival window. These cells form a massive and homogenous mass from tumor-initiating cells, are localized, and invade neuronal tissue. This model is a predictor of therapeutic responses in human glioblastoma patients. U87MG cells (FIGS. 2A-3C) with a luciferase reporter gene were injected (5×10^5 cells in […] serum-free DMEM) into the right dorsal CA3 hippocampal region (coordinates: 2.5 mm lateral, 1.7 mm posterior to the bregma, and 1.5 depth) of mice (6-8 wks of age) (Marrero et al., 2014).
In vivo imaging analysis: Intracranial tumor growth was quantified by bioluminescent imaging using an in vivo imaging system and procedures as described by Marrero et al., 2014, incorporated herein by reference in its entirety.

[2] = system: MIP-2; assay: Hippocampal MIP-2 after neuroinflammation (LPS / post status epilepticus), bead-based immunodetection; assay type: in vivo, mice; conditions: 60 mg/kg/daily for 5 days i.p.
Procedure: MIP-2 was measured using bead-based immunodetection. Values are means±SD: *P<0.05 (two-way repeated-measures ANOVA).
MIP-2 was measured using bead-based immunodetection respectively. Diamonds: interval of confidence; diamond internal horizontal line; group mean; bar lines; standard deviation. Data represent average and bars±S.E.M; n=3 of each group. ANOVA one way, *=p<0.05.
Pro-inflammatory molecular analysis: LC-MS/MS-based mediator lipidomic analysis will be evaluated as described previously (Musto et al., 2011, Musto and Samii, 2011), chemokine analysis was performed using commercial enzyme-linked immune-absorbent assay (Rodent MAPs Myira RBM, USA), and matrix metalloproteinase (MMP) activity were investigated by gelatin zymography assay (Ramaswamy et al., 2014).

[3] = Pentylenetetrazol (PTZ) test, locomotor seizures by modified Racine's score; assay type: in vivo, mice; conditions: single dose 60 mg/kg i.p. 2 h before PTZ 40 mg/kg i.p.; vs vehicle
Procedure: A single dose (i.p.) of a LAU compound 60 mg/kg; ip.) or vehicle (0.1 mL of sterile 0.9% sodium chloride) was administered 2 h before a single dose of pentylenetetrazol (PTZ) (40 mg/kg; i.p.). Data represent average and bars±S.E.M. t-test between vehicle and for each LAU compound: LAU0901 p<0.031; others: p<0.0001 at 60 mins. Maximum seizure levels and the percentage reduction from vehicle after PTZ injection are shown. Locomotor seizures were video recorded and quantified according to a modified Racine's score (Stage: 0 normal locomotor activity. Stage 1, behavioral arrest, Stage 2: head nodding; stage 3, facial movements and contralateral forelimb dorms).
Pentylenetetrazol test: The systemic administration of pentylenetetrazol (PTZ) in rodents, an accepted model to test the potential anti-convulsive effect (Loscher, 2011) was used to evaluate seizure susceptibility in mice with GBM cell implantation. It has been seen that systemic administration of PTZ at 35 mg/kg is useful as a sub-convulsive dose to evaluate seizures after brain damage. Animals were placed in individual Plexiglas cages (28×28×37.5 cm) and then a single dose of PTZ (Sigma, St. Louis, MO) at 35 mg/kg were administered intraperitoneally (i.p.) to each animal. Locomotor seizures were quantified according to a modified Racine's Score classified as previously described (Musto et al., 2009, 2011).

[4] = Seizure susceptibility and survival after status epilepticus (SE); assay type: in vivo, BALB/c (nu/nu) mice; conditions: 60 mg/kg i.p. daily for 5 days, 24 h after SE
Procedure: BABL/c (nu/nu) mice received compound LAU-0901 (60 mg/kg; i.p.) or saline daily for 5 days 24 h after SE.
GBM cells were implanted into PAF-r deficient or wild type mice. Lyn kinase inhibitor (Dasatinib; 0.01 mL/g) (Luo et al., 2000) or vehicle (propylene glycol/water) was administered intraperitoneally at 14 d after GBM implantation and continues for 14 d. Alternatively, BALB/c, (nu/nu) mice received LAU-0901 (60 mg/kg; i.p.) or saline daily for 5 days (n=4-5 per group) 24 h after SE. Weight, locomotion, survival rate, behavior, in vivo tumor growth, and GBM cells were analyzed.

[5] = system: dysmorphic filopodia-like spines; assay: Dysmorphic filopodia-like dendritic spines in epileptogenesis, Golgi staining; assay type: in vivo, mice; conditions: 7 days after SE
Procedure: Cyto-architecture hippocampal neurons, dendrites and dendritic spines was evaluated using rapid Golgi staining and the DIOLISTIC labeling approach, as shown in FIG. 12A. Then dendrites and dendritic spines from pyramidal cells were reconstructed, analyzed, and visualized in a 30 shape of neurons from the ipsi and contralateral hippocampal region using light and confocal microscopy, digitally-traced, mediated computational analysis.

[6] = system: Lyn kinase; assay: Phospho-Lyn in hippocampal synapsis after SE, immunohistology; assay type: in vivo, mice; conditions: hippocampus
[7] = system: microglia; conditions: in vivo; cited from earlier work
[8] = system: MIP-2; assay: MIP-2 in mice with GBM; assay type: in vivo; conditions: compared with vehicle

Compound	tumor size ([1]; 60 mg/kg/day i.p. for 5 days from day 10, representative images, 10 week-survival period, vs saline)	tumor size diminished compared to saline-treated group ([1]; day 25, 60 mg/kg/day i.p. for 5 days from day 10) [%]	body weight ([1]; weeks 8 and 10, compared to saline group)	hippocampal levels of MIP-2 ([2]; LPS one week after status epilepticus, vs saline (FIG. 4))	hippocampal levels of MIP-2 ([2]; LPS or one week after status epilepticus (PSE), vs vehicle (FIG. 20), 60 mg/kg)	neuronal hyper-excitability (locomotor seizures after PTZ) [3]	seizure severity [4]	average spine length for dysmorphic filopodia-like spines [5]	puncta phospho-Lyn and co-localization with pre- and post-synaptic markers [6]	microglia activation [7]	increases of MIP-2 [8]
2,4,6-trimethyl-1,4-dihydro-pyridine-3,5-dicarboxylic acid 5-[2-(3,4-dichlorophenyl) sulfanethyl ester 3-[1,3-di-(4-morpholinyl)-2-propyl-1-ester [LAU-0901]	dramatically reduced	80	increased	reduced	limited; also recorded: reduces	counteract neuronal hyper-excitability	reduced seizure severity	increased in the vehicle-treated compared to the LAU-0901-treated group	low puncta phospho-Lyn	reduces microglia activation	
CC(C)Cc1ccc([C@@H](C)C(=O)NS(C)(=O)=O)cc1 [repertaxin]											higher in those mice treated with vehicle
